According to US9150530B2, “Esters of 4, 9-dihydroxy-naphtho [2, 3-b] furans for disease therapies” (Zhoushan Haizhongzhou Xinsheng Pharmaceuticals Co., Ltd., priority 2011, dated 2015):

Tests used:
Type in all cases: cell-based
CNE = assay: Cell viability determination (MTT), CNE; conditions: Homo sapiens, nasopharyngeal cancer, 48 hour incubation, read-out: Drug concentrations for 50% cell viability (IC50)
Excerpt: (§1) Cell Culture: A549, DLD1, SW480, LOVO, HT-29, Hela, U-20S, MES-SA, SK-MEL-28, Panc-1, DU-145, CNE, U251, Eca-109, MGC80-3, QGY-7701, BEL-7404, PLC/PRF/5, Huh-7, and SGC-7901 cells were maintained in Dulbecco's Modified Eagle Medium (DMEM) (imported from Invitrogen, Carlsbad, Calif., USA) supplemented with 10% fetal bovine serum (FBS) (Si Ji Qing, Hangzhou, China) and 1% penicillin/streptomycin/amphotericin B (imported from Invitrogen, Carlsbad, Calif., USA).
(§2) Cell Viability Determination: Popular MTT method (Archives of Biochemistry and Biophysics, 1993, 303: 474-482) was used to screen the in vitro effects of the invented drugs. Briefly, 5000 to 10000 cells were inoculated per well in a 96-well plate. After overnight incubation, drug was added to the wells at final concentration of 10 μM, […], 2.5 μM, 1.25 μM, or 1 μM, 0.75 μM, 0.5 μM and 0.25 μM in complete culture medium. Each dose level covered 4 equivalent wells. After 48 hour incubation, one tenth volume of 5 mg/mL MTT (thiazolyl blue tetrazolium bromide, Sigma-Aldrich) stock solution was added, and incubation was continued for 2 hours. Then medium was removed and 100 μL of isopropanol solution comprising 86% isopropanol, 4% aqueous 1 N HCl and 10% aqueous SDS solution (10% in concentration) was added. The absorbance of each well at 570 nm wavelength was measured by a micro-plate reader after gentle shaking for 20 minutes. Drug concentrations of 50% cell viability (IC50) were calculated by LOGIT method.

SW480 = assay: Cell viability determination (MTT), SW480; conditions: Homo sapiens, SW480, colorectal cancer, 48 hour incubation, read-out: Drug concentrations for 50% cell viability (IC50)
Excerpt: as §1, §2

QGY-7701 = assay: Cell viability determination (MTT), QGY-7701; conditions: QGY7701, QGY-7701, liver cancer, 48 hour incubation, read-out: Drug concentrations for 50% cell viability (IC50)
Excerpt: as §1, §2

DLD1 = assay: Cell viability determination (MTT), DLD1; conditions: Homo sapiens, DLD-1, DLD1, colorectal cancer, 48 hour incubation, read-out: Drug concentrations for 50% cell viability (IC50)
Excerpt: as §1, §2

MES-SA = assay: Cell viability determination (MTT), MES-SA; conditions: Homo sapiens, leiomyosarcoma, 48 hour incubation, read-out: Drug concentrations for 50% cell viability (IC50)
Excerpt: as §1, §2

Panc-1 = assay: Cell viability determination (MTT), Panc-1; conditions: Homo sapiens, Panc-1, pancreatic cancer, 48 hour incubation, read-out: Drug concentrations for 50% cell viability (IC50)
Excerpt: as §1, §2

MGC80-3 = assay: Cell viability determination (MTT), MGC80-3; conditions: Homo sapiens, MGC-803, MGC80-3, stomach cancer, 48 hour incubation, read-out: Drug concentrations for 50% cell viability (IC50)
Excerpt: as §1, §2

Eca-109 = assay: Cell viability determination (MTT), Eca-109; conditions: Homo sapiens, Eca-109, esophageal cancer, 48 hour incubation, read-out: Drug concentrations for 50% cell viability (IC50)
Excerpt: as §1, §2

LOVO = assay: Cell viability determination (MTT), LOVO; conditions: Homo sapiens, colorectal cancer, 48 hour incubation, read-out: Drug concentrations for 50% cell viability (IC50)
Excerpt: as §1, §2

Work on `CC(=O)Oc1c2ccccc2c(OC(=O)CNC(=O)OC(C)(C)C)c2oc(C(C)=O)cc12` [compound IV, 2-acetyl-4-acetoxy-9-[(tert-butoxycarbonyl)amino]acetoxy-naphtho[2,3-b]furan] yielded an IC50 (CNE) of 1330 nM, an IC50 (SW480) of 910 nM and an IC50 (QGY-7701) of 3260 nM. For the same compound, the IC50 (DLD1) was 300 nM, the IC50 (MES-SA) was 420 nM and the IC50 (Panc-1) was 870 nM. It also gave an IC50 (MGC80-3) of 1220 nM, an IC50 (Eca-109) of 1630 nM and an IC50 (LOVO) of 1930 nM.
